# Article PMC5218480 (PLoS ONE, 2017)
# System: MV-4-11 cells
# Assay: Gene expression microarray analysis (Affymetrix PrimeView) and GSEA
# Type: cell-based, human
# Parameters: RFU PODN (11730768_x_at) / Fold change /veh PODN (11730768_x_at) / RFU LINC00158 (11744669_a_at) / Fold change /veh LINC00158 (11744669_a_at) / RFU DUSP10 (11751237_a_at) / Fold change /veh DUSP10 (11751237_a_at) / RFU ID3 (11757404_x_at) / Fold change /veh ID3 (11757404_x_at) / RFU PLEKHG5 (11737974_s_at) / Fold change /veh PLEKHG5 (11737974_s_at) / RFU LRRC4B (11730491_at) / Fold change /veh LRRC4B (11730491_at) / RFU GIMAP4 (11747438_a_at) / Fold change /veh GIMAP4 (11747438_a_at) / RFU KRT8 (11758183_x_at) / Fold change /veh KRT8 (11758183_x_at) / RFU CNN1 (11734310_a_at) / Fold change /veh CNN1 (11734310_a_at) / RFU VPS37D (11726825_at) / Fold change /veh VPS37D (11726825_at) / RFU C10orf10 (11716522_x_at) / Fold change /veh C10orf10 (11716522_x_at) / RFU KIR2DL2 /// KIR2DL4 /// KIR2DL5A /// KIR2DL5B /// KIR2DS1 /// KIR2DS2 /// KIR2DS3 /// KIR2DS4 /// KIR3DL3 /// KIR3DL3 /// KIR3DS1 (11738374_at) / Fold change /veh KIR2DL2 /// KIR2DL4 /// KIR2DL5A /// KIR2DL5B /// KIR2DS1 /// KIR2DS2 /// KIR2DS3 /// KIR2DS4 /// KIR3DL3 /// KIR3DL3 /// KIR3DS1 (11738374_at) / RFU C1QL1 (11718748_at) / Fold change /veh C1QL1 (11718748_at) / RFU TMPRSS4 (11747572_a_at) / Fold change /veh TMPRSS4 (11747572_a_at) / RFU HAMP (11756126_x_at) / Fold change /veh HAMP (11756126_x_at) / RFU RNFT2 (11725882_a_at) / Fold change /veh RNFT2 (11725882_a_at) / RFU NR4A2 (11747474_a_at) / Fold change /veh NR4A2 (11747474_a_at) / RFU ABCC12 (11746883_a_at) / Fold change /veh ABCC12 (11746883_a_at) / RFU TMEM136 (11760407_x_at) / Fold change /veh TMEM136 (11760407_x_at) / RFU CLDN22 /// WWC2 (11732394_at) / Fold change /veh CLDN22 /// WWC2 (11732394_at) / RFU HLA-DPB1 (11760878_x_at) / Fold change /veh HLA-DPB1 (11760878_x_at) / RFU SPINT1 (11716480_a_at) / Fold change /veh SPINT1 (11716480_a_at) / RFU GAP43 (11754022_s_at) / Fold change /veh GAP43 (11754022_s_at) / RFU A4GNT (11735810_at) / Fold change /veh A4GNT (11735810_at) / RFU PRB3 (11715151_x_at) / Fold change /veh PRB3 (11715151_x_at) / RFU TUBB4B (11761932_at) / Fold change /veh TUBB4B (11761932_at) / RFU CAPN14 (11732068_a_at) / Fold change /veh CAPN14 (11732068_a_at) / RFU TMCC2 (11721928_a_at) / Fold change /veh TMCC2 (11721928_a_at) / RFU IRGQ (11745062_a_at) / Fold change /veh IRGQ (11745062_a_at) / RFU FAM174B (11720279_a_at) / Fold change /veh FAM174B (11720279_a_at) / RFU TMPRSS4 (11748680_a_at) / Fold change /veh TMPRSS4 (11748680_a_at) / RFU FAM212B (11763350_a_at) / Fold change /veh FAM212B (11763350_a_at) / RFU PLEKHG5 (11743358_a_at) / Fold change /veh PLEKHG5 (11743358_a_at) / RFU ZSCAN30 (11745921_a_at) / Fold change /veh ZSCAN30 (11745921_a_at) / RFU CMKLR1 (11741424_a_at) / Fold change /veh CMKLR1 (11741424_a_at) / RFU LOC101060620 /// MAPK8IP1 (11723275_at) / Fold change /veh LOC101060620 /// MAPK8IP1 (11723275_at) / RFU SPTSSB (11747773_x_at) / Fold change /veh SPTSSB (11747773_x_at) / RFU PRSS12 (11739890_at) / Fold change /veh PRSS12 (11739890_at) / RFU BIN1 (11741810_x_at) / Fold change /veh BIN1 (11741810_x_at) / RFU WNT11 (11732464_a_at) / Fold change /veh WNT11 (11732464_a_at) / RFU C10orf10 (11716521_a_at) / Fold change /veh C10orf10 (11716521_a_at) / RFU C5orf56 (11738089_at) / Fold change /veh C5orf56 (11738089_at) / RFU CYB561 (11721691_x_at) / Fold change /veh CYB561 (11721691_x_at) / RFU ANKRD19P (11752326_a_at) / Fold change /veh ANKRD19P (11752326_a_at) / RFU OR2T12 /// OR2T33 /// OR2T8 (11738714_s_at) / Fold change /veh OR2T12 /// OR2T33 /// OR2T8 (11738714_s_at) / RFU VCAN (11748164_a_at) / Fold change /veh VCAN (11748164_a_at) / RFU JSRP1 (11732532_at) / Fold change /veh JSRP1 (11732532_at) / RFU KRTAP10-11 (11738290_x_at) / Fold change /veh KRTAP10-11 (11738290_x_at) / RFU MYO3A (11730013_a_at) / Fold change /veh MYO3A (11730013_a_at) / RFU EBF3 (11725865_a_at) / Fold change /veh EBF3 (11725865_a_at) / RFU CAMK2N1 (11719241_x_at) / Fold change /veh CAMK2N1 (11719241_x_at) / RFU C5orf56 (11738088_a_at) / Fold change /veh C5orf56 (11738088_a_at) / RFU OLFML3 (11715873_a_at) / Fold change /veh OLFML3 (11715873_a_at) / RFU LOC100653217 /// NTM (11731650_a_at) / Fold change /veh LOC100653217 /// NTM (11731650_a_at) / RFU MAPK11 (11762145_a_at) / Fold change /veh MAPK11 (11762145_a_at) / RFU FIZ1 (11724087_x_at) / Fold change /veh FIZ1 (11724087_x_at) / RFU OASL (11726364_x_at) / Fold change /veh OASL (11726364_x_at) / RFU SOX15 (11748057_x_at) / Fold change /veh SOX15 (11748057_x_at) / RFU CD79A (11719716_a_at) / Fold change /veh CD79A (11719716_a_at) / RFU HIST1H1D (11736915_at) / Fold change /veh HIST1H1D (11736915_at) / RFU CASKIN2 (11723855_a_at) / Fold change /veh CASKIN2 (11723855_a_at) / RFU LOC730098 (11760151_x_at) / Fold change /veh LOC730098 (11760151_x_at) / RFU OR4N2 (11742367_at) / Fold change /veh OR4N2 (11742367_at) / RFU PRRT2 (11749266_a_at) / Fold change /veh PRRT2 (11749266_a_at) / RFU SNX32 (11753110_a_at) / Fold change /veh SNX32 (11753110_a_at) / RFU CDHR5 (11726645_a_at) / Fold change /veh CDHR5 (11726645_a_at) / RFU RCAN1 (11760418_a_at) / Fold change /veh RCAN1 (11760418_a_at) / RFU FAM167A (11723789_a_at) / Fold change /veh FAM167A (11723789_a_at) / RFU FAM26E (11764081_at) / Fold change /veh FAM26E (11764081_at) / RFU ISYNA1 (11749810_s_at) / Fold change /veh ISYNA1 (11749810_s_at) / RFU ACY1 (11761880_at) / Fold change /veh ACY1 (11761880_at) / RFU 11764098_at / Fold change /veh 11764098_at / RFU SAMD14 (11745864_x_at) / Fold change /veh SAMD14 (11745864_x_at) / RFU NPB (11741838_a_at) / Fold change /veh NPB (11741838_a_at) / RFU TMPRSS6 (11731388_a_at) / Fold change /veh TMPRSS6 (11731388_a_at) / RFU KRTAP10-2 (11738614_at) / Fold change /veh KRTAP10-2 (11738614_at) / RFU ARHGAP8 /// PRR5-ARHGAP8 (11727945_x_at) / Fold change /veh ARHGAP8 /// PRR5-ARHGAP8 (11727945_x_at) / RFU KRTAP5-7 /// NADSYN1 (11734609_at) / Fold change /veh KRTAP5-7 /// NADSYN1 (11734609_at) / RFU RASL12 (11751679_a_at) / Fold change /veh RASL12 (11751679_a_at) / RFU CDKN2B (11736163_a_at) / Fold change /veh CDKN2B (11736163_a_at) / RFU PRF1 (11729649_at) / Fold change /veh PRF1 (11729649_at) / RFU, ZNF638 /// ZNF638-IT1 / Fold change vs veh, ZNF638 /// ZNF638-IT1 / RFU, PANK3 / Fold change vs veh, PANK3 / RFU, SH3YL1 / Fold change vs veh, SH3YL1 / RFU, ZEB2 / Fold change vs veh, ZEB2 / RFU, NRIP1 / Fold change vs veh, NRIP1 / RFU, PTTG1IP / Fold change vs veh, PTTG1IP / RFU, CAPN2 / Fold change vs veh, CAPN2 / RFU, MED14 / Fold change vs veh, MED14 / RFU, SNORA58 / Fold change vs veh, SNORA58 / RFU, C1orf63 / Fold change vs veh, C1orf63 / RFU, LRRFIP1 / Fold change vs veh, LRRFIP1 / RFU, NDUFAF7 / Fold change vs veh, NDUFAF7 / RFU, SLC12A2 / Fold change vs veh, SLC12A2 / RFU, IBTK / Fold change vs veh, IBTK / RFU, ESF1 / Fold change vs veh, ESF1 / Fold change vs veh, TMEM50B / RFU, TAOK1 / Fold change vs veh, TAOK1 / RFU, ACBD3 / Fold change vs veh, ACBD3 / RFU, TMA16 / Fold change vs veh, TMA16 / RFU, RWDD3 / Fold change vs veh, RWDD3 / RFU, BCAT1 / Fold change vs veh, BCAT1 / RFU, EDEM3 / Fold change vs veh, EDEM3 / RFU, TMEM33 / Fold change vs veh, TMEM33 / RFU, WDR75 / Fold change vs veh, WDR75 / RFU, AHCTF1 / Fold change vs veh, AHCTF1 / RFU, TFRC / Fold change vs veh, TFRC / RFU, ZDHHC17 / Fold change vs veh, ZDHHC17 / RFU, NOM1 / Fold change vs veh, NOM1 / RFU, ARL8B / Fold change vs veh, ARL8B / RFU, ZBTB11 / Fold change vs veh, ZBTB11 / RFU, TAMM41 / Fold change vs veh, TAMM41 / RFU, KIAA1704 /// LOC100996395 / Fold change vs veh, KIAA1704 /// LOC100996395 / RFU, ING1 / Fold change vs veh, ING1 / RFU, TRMT61B / Fold change vs veh, TRMT61B / RFU, FUBP3 / Fold change vs veh, FUBP3 / RFU, TP53 / Fold change vs veh, TP53 / RFU, TNKS2 / Fold change vs veh, TNKS2 / RFU, ZFP14 / Fold change vs veh, ZFP14 / RFU, ACTR2 / Fold change vs veh, ACTR2 / RFU, PPP3R1 / Fold change vs veh, PPP3R1 / RFU, PIK3R1 / Fold change vs veh, PIK3R1 / RFU, HNRNPA1 / Fold change vs veh, HNRNPA1 / RFU, RNF170 / Fold change vs veh, RNF170 / RFU, ZNF28 / Fold change vs veh, ZNF28 / RFU, RNGTT / Fold change vs veh, RNGTT / RFU, OGT / Fold change vs veh, OGT / RFU, BRD1 / Fold change vs veh, BRD1 / RFU, MARS / Fold change vs veh, MARS / RFU, ZNF655 / Fold change vs veh, ZNF655 / RFU, FAHD1 / Fold change vs veh, FAHD1 / RFU, BDP1 / Fold change vs veh, BDP1 / RFU, LRRCC1 / Fold change vs veh, LRRCC1 / RFU, ARID1A / Fold change vs veh, ARID1A / RFU, ZNF146 / Fold change vs veh, ZNF146 / RFU, ZNF330 / Fold change vs veh, ZNF330 / RFU, GPN3 / Fold change vs veh, GPN3 / RFU, C9orf123 / Fold change vs veh, C9orf123 / RFU, N4BP2L2 / Fold change vs veh, N4BP2L2 / RFU, ARFIP1 / Fold change vs veh, ARFIP1 / RFU, FAM179B / Fold change vs veh, FAM179B / RFU, BCL10 / Fold change vs veh, BCL10 / RFU, UHRF1BP1L / Fold change vs veh, UHRF1BP1L / RFU, BET1 / Fold change vs veh, BET1 / RFU, CNOT2 / Fold change vs veh, CNOT2 / RFU, ZNF268 / Fold change vs veh, ZNF268 / Fold change vs veh, ZNF507 / RFU, DGCR2 / Fold change vs veh, DGCR2 / RFU, WDSUB1 / Fold change vs veh, WDSUB1 / Fold change vs veh, HSP90B1 /// MIR3652 / RFU, ADSS / Fold change vs veh, ADSS / RFU, GK / Fold change vs veh, GK / RFU, ZNF148 / Fold change vs veh, ZNF148 / RFU, TAF9 / Fold change vs veh, TAF9 / RFU, SLC1A5 / Fold change vs veh, SLC1A5 / RFU, SLMO2 / Fold change vs veh, SLMO2 / RFU, ABCC4 / Fold change vs veh, ABCC4 / RFU, LOC101060439 /// RAP1B / Fold change vs veh, LOC101060439 /// RAP1B / RFU, RFX7 / Fold change vs veh, RFX7 / RFU, GTPBP10 / Fold change vs veh, GTPBP10 / RFU, CNEP1R1 / Fold change vs veh, CNEP1R1 / RFU, BIVM-ERCC5 /// ERCC5 / Fold change vs veh, BIVM-ERCC5 /// ERCC5 / RFU, ILF3 / Fold change vs veh, ILF3 / RFU 11762660_at / Fold change /veh 11762660_at / RFU VCAN (11757783_s_at) / Fold change /veh VCAN (11757783_s_at) / RFU DDX43 (11728927_at) / Fold change /veh DDX43 (11728927_at) / RFU KRT8 (11758188_x_at) / Fold change /veh KRT8 (11758188_x_at) / RFU NKD1 (11759106_at) / Fold change /veh NKD1 (11759106_at) / RFU SRD5A1 (11742802_a_at) / Fold change /veh SRD5A1 (11742802_a_at) / RFU TPSAB1 /// TPSB2 (11721975_s_at) / Fold change /veh TPSAB1 /// TPSB2 (11721975_s_at) / RFU GSTM3 (11746129_a_at) / Fold change /veh GSTM3 (11746129_a_at) / RFU IL23R (11737362_x_at) / Fold change /veh IL23R (11737362_x_at) / RFU TMEM51 (11727254_a_at) / Fold change /veh TMEM51 (11727254_a_at) / RFU PIWIL2 (11732686_x_at) / Fold change /veh PIWIL2 (11732686_x_at) / RFU ORM1 (11744905_x_at) / Fold change /veh ORM1 (11744905_x_at) / RFU CCDC152 (11743942_at) / Fold change /veh CCDC152 (11743942_at) / RFU ECM1 (11717891_a_at) / Fold change /veh ECM1 (11717891_a_at) / RFU IL23R (11748794_a_at) / Fold change /veh IL23R (11748794_a_at) / RFU TNFAIP8L3 (11732012_x_at) / Fold change /veh TNFAIP8L3 (11732012_x_at) / RFU MBOAT4 (11741988_at) / Fold change /veh MBOAT4 (11741988_at) / RFU 11764193_at / Fold change /veh 11764193_at / RFU TMEM53 (11763286_at) / Fold change /veh TMEM53 (11763286_at) / RFU MAGEB2 (11727129_at) / Fold change /veh MAGEB2 (11727129_at) / RFU TMEM200A (11744735_a_at) / Fold change /veh TMEM200A (11744735_a_at) / RFU CCDC152 (11751479_a_at) / Fold change /veh CCDC152 (11751479_a_at) / RFU FAM211A (11726209_a_at) / Fold change /veh FAM211A (11726209_a_at) / RFU RGS16 (11746705_a_at) / Fold change /veh RGS16 (11746705_a_at) / RFU VCAN (11755009_s_at) / Fold change /veh VCAN (11755009_s_at) / RFU RHOB (11743442_s_at) / Fold change /veh RHOB (11743442_s_at) / RFU RGS16 (11720943_a_at) / Fold change /veh RGS16 (11720943_a_at) / RFU RGS16 (11720944_at) / Fold change /veh RGS16 (11720944_at) / RFU, VPS4B / Fold change vs veh, VPS4B / RFU, CREB1 / Fold change vs veh, CREB1 / RFU, DNAJC13 / Fold change vs veh, DNAJC13 / RFU, GNAQ / Fold change vs veh, GNAQ / RFU, CDK5R1 / Fold change vs veh, CDK5R1 / RFU, ZRANB3 / Fold change vs veh, ZRANB3 / RFU, CUL4A / Fold change vs veh, CUL4A / RFU, CCNY / Fold change vs veh, CCNY / RFU, UFL1 / Fold change vs veh, UFL1 / RFU, COG3 / Fold change vs veh, COG3 / RFU, DIAPH2 / Fold change vs veh, DIAPH2 / RFU, SKA2 / Fold change vs veh, SKA2 / RFU, AFF3 / Fold change vs veh, AFF3 / RFU, LMF1 / Fold change vs veh, LMF1 / RFU, IPO11 / Fold change vs veh, IPO11 / RFU, DFFB / Fold change vs veh, DFFB / RFU, FOXP1 / Fold change vs veh, FOXP1 / RFU, CARD8 / Fold change vs veh, CARD8 / RFU, STRN3 / Fold change vs veh, STRN3 / RFU, ADK / Fold change vs veh, ADK / RFU, RASSF2 / Fold change vs veh, RASSF2 / RFU, WIPF1 / Fold change vs veh, WIPF1 / RFU, LARP1B / Fold change vs veh, LARP1B / RFU, RASA1 / Fold change vs veh, RASA1 / RFU, RB1 / Fold change vs veh, RB1 / RFU, PPFIA1 / Fold change vs veh, PPFIA1 / RFU, MAT2A / Fold change vs veh, MAT2A / RFU, CCT5 / Fold change vs veh, CCT5 / RFU, WDR92 / Fold change vs veh, WDR92 / RFU, CUX1 / Fold change vs veh, CUX1 / RFU, TTC7A / Fold change vs veh, TTC7A / RFU, TMEM135 / Fold change vs veh, TMEM135 / RFU, DEPTOR / Fold change vs veh, DEPTOR / RFU, CPM / Fold change vs veh, CPM / RFU, DNAJB6 / Fold change vs veh, DNAJB6 / RFU, CACNA2D3 / Fold change vs veh, CACNA2D3 / RFU, DTX4 / Fold change vs veh, DTX4 / RFU, TFCP2 / Fold change vs veh, TFCP2 / RFU, GMCL1 /// GMCL1P1 / Fold change vs veh, GMCL1 /// GMCL1P1 / RFU, AEBP2 / Fold change vs veh, AEBP2 / RFU, SNHG1 /// SNORD22 /// SNORD25 /// SNORD26 /// SNORD27 /// SNORD28 /// SNORD29 /// SNORD31 / Fold change vs veh, SNHG1 /// SNORD22 /// SNORD25 /// SNORD26 /// SNORD27 /// SNORD28 /// SNORD29 /// SNORD31 / Fold change (Aza/veh), C12orf56 (ProbeSet 11735607_a_at) / Fold change (ACY-1035/veh), C12orf56 (ProbeSet 11735607_a_at) / Fold change (Aza/veh), FGFR1OP (ProbeSet 11751329_s_at) / Fold change (ACY-1035/veh), FGFR1OP (ProbeSet 11751329_s_at) / Fold change (Aza/veh), VPS36 (ProbeSet 11739960_a_at) / Fold change (ACY-1035/veh), VPS36 (ProbeSet 11739960_a_at) / RFU SYPL1 (11715823_x_at) / Fold change /veh SYPL1 (11715823_x_at) / RFU IGFBP7 (11715501_s_at) / Fold change /veh IGFBP7 (11715501_s_at) / RFU REEP3 (11722064_at) / Fold change /veh REEP3 (11722064_at) / RFU IGLL1 (11728026_x_at) / Fold change /veh IGLL1 (11728026_x_at): dose or concentration left out as unconfirmed
# Conditions: ProbeSet 11740528_a_at; LIST D
compound,measurement,value
Nc1ccc(-c2cccs2)cc1NC(=O)c1ccc2c(c1)cc(C1CC1)n2CCN1CCOCC1 [ACY-1035],"Fold change vs veh, AFF3",0.95
